Earlier results as cited in US20260151341A1, “NOVEL AMORPHOUS ACTIVE PHARMACEUTICAL INGREDIENTS” (DISRUPTIVE PHARMA AB, priority 2020, published 2026).

Settings: mesoporous silica, study referred to by Gupte et al.

loading at which stabilized by silica: more than 32 % by weight
Structure (SMILES): CCC(C)n1ncn(-c2ccc(N3CCN(c4ccc(OCC5COC(Cn6cncn6)(c6ccc(Cl)cc6Cl)O5)cc4)CC3)cc2)c1=O (stereo not shown) [Itraconazole, itraconazole]
